{"source": "patent US20150099802A1", "about": "“SELECTIVE TUMOR TREATMENT” (SUCAMPO AG, priority 2013, published 2015)", "assay_type_in_all_cases": "cell-based", "key": {"[1]": {"tested_on": "hPGDH-transfected colon adenocarcinoma LS174T cells", "experiment": "Growth of hPGDH-transfected LS174T colon adenocarcinoma cells (cell counting)", "details": "100 nM lubiprostone, fresh every 24 hr, cells counted at 0-96 hr, FIG. 1B", "method": "(§1) Approximately half of colon cancers have a low level of NAD^+-linked 15-hydroxyprostaglandin dehydrogenase (NAD^+-15-PGDH). It was tested whether lubiprostone affected the growth of LS174T colon […] cells, which are known to have a low level of 15-PGDH. LS174T cells (ATCC #CL-188) were grown in Eagle's Minimum Essential Medium (ATCC #30-2003) containing 10% Fetal Bovine Serum (ATCC #30-2020) at 37° C. Human PGDH (hPGDH) was expressed in LS174T cells using pCMV6-Entry Vector. Both the human cDNA clone (#RC204160) and the Precision shuttle vector (#PS100001) were from OriGene Technologies, Rockville, Md. LS174T cells were transfected with hPGDH cDNA using Lipofectamine and selected using G418 (200 μg/ml). LS174T cells±hPGDH (+hPGDH or + vector alone, mock) were grown in 35 mm petri dishes (0.5×10^4 cells/dish) in triplicate. Confluent non-transfected cells were plated in 6 well dishes (1×10^4 cells/well) in triplicate. Cultures were grown to 40% confluence and were then treated with either 0.1% EtOH-0.01% DMSO or 100 nM lubiprostone. Media were changed and fresh EtOH-DMSO or lubiprostone was added every 24 hr. Cell growth was monitored by directly counting the cells in a randomly chosen field using a cell cytometer at 0, 24, 48, 72 and 96 hr."}, "[2]": {"tested_on": "Non-transfected colon adenocarcinoma LS174T cells", "experiment": "Growth of non-transfected LS174T colon adenocarcinoma cells (cell counting)", "details": "100 nM lubiprostone, fresh every 24 hr; cells counted at 0, 24, 48, 72 and 96 hr; non-transfected cells (low 15-PGDH); FIG. 1A", "method": "as §1"}, "[3]": {"tested_on": "Mock-transfected colon adenocarcinoma LS174T cells", "experiment": "Growth of mock-transfected LS174T colon adenocarcinoma cells (cell counting)", "details": "100 nM lubiprostone, fresh every 24 hr; cells counted at 0-96 hr; vector-alone (mock) LS174T cells; FIG. 1C", "method": "as §1"}}, "data": [{"compound": "CCCCC(F)(F)[C@@]1(O)CC[C@H]2[C@@H](CC(=O)[C@@H]2CCCCCCC(=O)O)O1", "note": "[lubiprostone, (−)-7-[(2R,4aR,5R,7aR)-2-(1,1-difluoropentyl)-2-hydroxy-6-oxooctahydrocyclopenta[b]pyran-5-yl]heptanoic acid]", "values": [{"measurement": "lubiprostone inhibition of cell growth after transfection with 15-OH PGDH", "setting": "[1]", "result": "prevented lubiprostone inhibition of cell growth"}, {"measurement": "LS174T cell growth", "setting": "[2]", "result": "slowed or stopped"}, {"measurement": "effect of mock transfection on lubiprostone inhibition of cell growth", "setting": "[3]", "result": "Mock transfection had no effect"}]}]}
